Measured values taken from EP4417602A1, “SUBSTITUTED PYRAZOLE CARBOXAMIDES, SALTS THEREOF AND THEIR USE AS HERBICIDALLY ACTIVE SUBSTANCES” (Bayer AG, priority 2023, dated 2024).

Assays:
ECHCG = assay: A. Herbicidal pre-emergence action on harmful plants (Tables A); type: in vivo, Echinochloa crus-galli; settings: visual grading after ca. 3 weeks vs untreated controls, 100% = plants have died off, 0% = as control plants
Source text: (§1) Seeds of mono- and dicotyledonous weed plants were sown in plastic pots (double sowings with one species of mono- and one species of dicotyledonous weed plants per pot), in sandy loam, and covered with soil. The compounds according to the invention, formulated in the form of wettable powders (WP) or as emulsifiable concentrates (EC), were applied to the surface of the covering soil as aqueous suspension or emulsion, with the addition of 0.5% of an additive, at an application rate of 6001 of water per hectare (converted). Following treatment, the pots were placed in a greenhouse and kept under optimum growth conditions for the test plants. The visual grading of the damage to the test plants was carried out after ca. 3 weeks in comparison to untreated controls (herbicidal effect in percent (%): 100% effect = plants have died off, 0% effect = as control plants). Tables A1 to A12, below, show the effects of selected compounds of the general formula (I) according to table 1 on various harmful plants and an application rate corresponding to 1280 g/ha or below obtained by the experimental procedure mentioned above. Table A1: pre-emergence activity at 1280g/ha against ABUTH in %

LOLRI = assay: as above; type: in vivo, Lolium rigidum; settings: visual grading after ca. 3 weeks vs untreated controls, 100% = plants have died off, 0% = as control plants
Source text: as §1

SETVI = assay: as above; type: in vivo, Setaria viridis; settings: visual grading after ca. 3 weeks vs untreated controls, 100% = plants have died off, 0% = as control plants
Source text: as §1

STEME = assay: as above; type: in vivo, Stellaria media; settings: application rate 1280 g/ha; visual grading after ca. 3 weeks vs untreated controls; 100% = plants have died off, 0% = as control plants
Source text: as §1

POAAN [1] = assay: as above; type: in vivo, Poa annua
Source text: as §1

DIGSA = assay: as above; type: in vivo, Digitaria sanguinalis
Source text: as §1

MATIN = assay: as above; type: in vivo, Matricaria inodora; settings: visual grading after ca. 3 weeks vs untreated controls, 100% = plants have died off, 0% = as control plants
Source text: as §1

POAAN [2] = assay: B. Herbicidal post-emergence action on harmful plants (Tables B); type: in vivo, Poa annua
Procedure: Seeds of mono- and dicotyledonous weed plants were placed in plastic pots in sandy loam soil (doubly sown with in each case one species of mono- or dicotyledonous weed plants per pot), covered with soil and cultivated in a greenhouse under controlled growth conditions. 2 to 3 weeks after sowing, the test plants were treated at the one-leaf stage. The compounds of the invention, formulated in the form of wettable powders (WP) or as emulsion concentrates (EC), were applied onto the green parts of the plants as aqueous suspension or emulsion with addition of 0.5% additive at a water application rate of 600 liters per hectare (converted). After the test plants had been kept in the greenhouse under optimum growth conditions for about 3 weeks, the activity of the preparations was rated visually in comparison to untreated controls. For example, 100% activity = the plants have died, 0% activity = like control plants. Tables B1 to B12, below, show the effects of selected compounds of the general formula (I) according to table 1 on various harmful plants and an application rate corresponding to 1280 g/ha or below obtained by the experimental procedure mentioned above. Table B1a: post-emergence activity at 1280g/ha against ABUTH in %

[3] = application rate 1280 g/ha, visual grading after ca. 3 weeks vs untreated controls, 100% = plants have died off, 0% = as control plants
[4] = application rate 1280 g/ha, Table A12a
[5] = application rate 80 g/ha, Table A7c
[6] = application rate 320 g/ha, Table A7b
[7] = application rate 1280 g/ha, Table B7a
[8] = application rate 320 g/ha, Table A12b

Structure (SMILES) | pre-emergence activity against ECHCG (ECHCG; application rate 1280 g/ha) [%] | pre-emergence activity against LOLRI (LOLRI; application rate 1280 g/ha) [%] | pre-emergence activity against SETVI (SETVI; application rate 1280 g/ha) [%] | pre-emergence activity against STEME (STEME) [%] | pre-emergence activity against POAAN (POAAN [1]; [3]) [%] | pre-emergence activity against DIGSA (DIGSA; [4]) [%] | pre-emergence activity against ECHCG (ECHCG; application rate 320 g/ha) [%] | pre-emergence activity against MATIN (MATIN; application rate 1280 g/ha) [%] | pre-emergence activity against POAAN (POAAN [1]; [5]) [%] | pre-emergence activity against POAAN (POAAN [1]; [6]) [%] | post-emergence activity against POAAN (POAAN [2]; [7]) [%] | pre-emergence activity against SETVI (SETVI; application rate 320 g/ha) [%] | post-emergence activity against POAAN (POAAN [2]; application rate 320 g/ha, Table B7b) [%] | pre-emergence activity against DIGSA (DIGSA; [8]) [%] | pre-emergence activity against ECHCG (ECHCG; application rate 80 g/ha) [%] | pre-emergence activity against LOLRI (LOLRI; application rate 320 g/ha) [%] | pre-emergence activity against MATIN (MATIN; application rate 320 g/ha) [%] | pre-emergence activity against DIGSA (DIGSA; application rate 80 g/ha, Table A12c) [%]
COCc1c(C(=O)N2CCCC2Cc2c(F)cccc2Cl)cnn1C (racemic) [Example I-151] | 100 | 90 | 90 | 90 | 100 | 100 |  |  |  |  |  |  |  |  |  |  |  | 
Cn1cc(C(=O)N2CCC2Cc2ccccc2F)c(COCC(F)F)n1 (racemic) [Example I-108] | 100 | 90 | 100 | 90 | 100 | 100 | 100 | 100 | 90 | 100 | 90 |  |  |  |  |  |  | 
COCc1nn(CC2CC2)cc1C(=O)N1CCCC1Cc1ccccc1F (racemic) [Example I-026] | 90 |  | 90 |  | 100 | 100 |  |  |  |  |  |  |  |  |  |  |  | 
COCCn1cc(C(=O)N2CCCC2Cc2ccccc2F)c(COC)n1 (racemic) [Example I-032] | 90 | 100 | 90 |  | 100 | 100 | 90 |  |  | 100 |  | 90 |  |  |  |  |  | 
COC(=O)c1nn(C)cc1C(=O)N1CCCC1Cc1ccc(F)cc1F (racemic) [Example I-096] | 100 |  |  | 100 | 100 | 100 | 100 |  |  | 100 | 100 |  | 100 |  |  |  |  | 
COCc1nn(CC2OCCO2)cc1C(=O)N1CCCC1Cc1ccccc1F (racemic) [Example I-028] | 90 |  | 90 |  | 100 | 90 |  |  |  |  |  |  |  |  |  |  |  | 
Cn1cc(C(=O)N2CCCC2Cc2ccccc2F)c(C2CCCO2)n1 (stereo not shown) [Example I-011] | 100 | 90 |  | 90 | 100 | 100 |  |  |  |  |  |  |  |  |  |  |  | 
COCc1nn(C(C)C)cc1C(=O)N1CCCC1Cc1ccccc1F (racemic) [Example I-025] | 90 | 90 | 90 |  | 100 | 100 |  | 90 |  | 100 |  |  |  | 90 |  |  |  | 
Cn1cc(C(=O)N2CCC2Cc2ccccc2Cl)c(COCC(F)F)n1 (racemic) [Example I-109] | 100 |  | 90 |  | 100 | 100 | 100 | 100 |  | 100 |  |  |  | 90 |  |  |  | 
COCc1nn(CC#N)cc1C(=O)N1CCCC1Cc1ccccc1F (racemic) [Example I-029] | 90 |  | 100 |  | 90 | 100 |  | 90 |  |  |  |  |  |  |  |  |  | 
COCCOCCn1cc(C(=O)N2CCCC2Cc2ccccc2F)c(COC)n1 (racemic) [Example I-030] | 90 |  | 90 |  | 100 | 90 |  | 90 | 90 | 90 |  |  |  |  |  |  |  | 
COCc1c(C(=O)N2CCCC2Cc2ccc(F)cc2F)cnn1C (single isomer, unassigned) [Example I-119] | 90 | 100 | 100 |  | 100 | 100 |  |  |  |  | 90 | 90 |  | 90 |  |  |  | 
COCc1c(C(=O)N2CCCC2Cc2cccc(F)c2F)cnn1C (single isomer, unassigned) [Example I-137] | 100 | 100 | 100 |  | 100 | 100 | 90 | 90 | 100 | 100 | 90 |  |  | 100 | 90 | 90 | 90 | 100
COCc1nn(CC(OC)OC)cc1C(=O)N1CCCC1Cc1ccccc1F (racemic) [Example I-047] | 100 | 90 |  |  | 100 | 90 |  |  |  |  |  |  |  |  |  |  |  | 
COCc1c(C(=O)N2CCCC2Cc2c(F)cccc2Cl)cnn1C (single isomer, unassigned) [Example I-190] | 100 | 90 | 100 | 90 | 100 | 100 | 90 |  | 90 | 100 | 90 |  |  | 100 |  |  |  | 
